biological target: T1, viral kinase pUL-97 (Human cytomegalovirus, UniProt P16788); assay: UL97 kinase assay on Immobilon plate; type: biochemical; conditions: inhibition of UL 97 kinase activity; class by IC50 / % inhibition at 10 μM or 100 μM; read-out: Activity Class [A, B, C]
T1 construct: The pUL-97 gene was cloned into a baculovirus vector; GST (glutathione S-transferase) (N); made in house; host or cells: Sf9 insect cells, baculovirus
In short: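 Compound was titrated into a radiometric reaction of Sf9-expressed GST-UL97 kinase, incubated 1 h at 30 °C in Tris-HCl pH 7.5/MnCl2/DTT buffer before EDTA stop. MBP substrate and ATP (3 μM in the added assay buffer) were supplied with γ-[33P]ATP. Labelled product bound to Immobilon filter was washed and counted by scintillation.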

T1 sequence (P16788 whole entry): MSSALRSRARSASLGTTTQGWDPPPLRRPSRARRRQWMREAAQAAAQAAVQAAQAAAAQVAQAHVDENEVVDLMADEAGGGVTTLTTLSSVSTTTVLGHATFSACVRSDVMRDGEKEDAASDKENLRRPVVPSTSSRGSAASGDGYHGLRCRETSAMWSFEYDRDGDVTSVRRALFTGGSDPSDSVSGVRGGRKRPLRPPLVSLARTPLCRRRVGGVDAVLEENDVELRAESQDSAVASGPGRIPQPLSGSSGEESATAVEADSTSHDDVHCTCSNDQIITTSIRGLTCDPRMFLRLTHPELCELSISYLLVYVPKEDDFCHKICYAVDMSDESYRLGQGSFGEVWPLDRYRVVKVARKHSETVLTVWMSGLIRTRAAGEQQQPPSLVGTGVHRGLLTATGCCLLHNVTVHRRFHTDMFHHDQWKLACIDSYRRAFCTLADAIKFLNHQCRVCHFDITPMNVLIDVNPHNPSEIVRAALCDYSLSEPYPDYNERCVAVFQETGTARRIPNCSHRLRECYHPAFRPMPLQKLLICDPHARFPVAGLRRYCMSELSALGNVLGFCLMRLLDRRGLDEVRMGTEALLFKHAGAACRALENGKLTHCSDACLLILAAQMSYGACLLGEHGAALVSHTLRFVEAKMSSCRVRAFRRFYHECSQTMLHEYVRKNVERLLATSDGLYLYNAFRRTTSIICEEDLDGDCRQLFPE

IC50	SMILES
10 to 100 µM	Cc1ccc(N2CCN(c3cncc(-c4csc5ccccc45)n3)CC2)cc1 [compound 231, 6′-Benzo[b]thiophen-3-yl-4-p-tolyl-3,4,5,6-tetrahydro-2H-[1,2′]bipyrazinyl]
10 to 100 µM	Cc1cccc(-c2cncc(N3CCN(c4ccc(F)cc4)CC3)n2)c1 [compound 232, 4-(4-Fluoro-phenyl)-6′-m-tolyl-3,4,5,6-tetrahydro-2H-[1,2′]bipyrazinyl]
1 to 10 µM	Cc1ccc(-c2cncc(N3CCN(c4ccc(F)cc4)CC3)n2)cc1 [compound 233, 4-(4-Fluoro-phenyl)-6′-p-tolyl-3,4,5,6-tetrahydro-2H-[1,2′]bipyrazinyl]
10 to 100 µM	COc1ccc(OC)c(-c2cncc(N3CCN(c4ccc(F)cc4)CC3)n2)c1 [compound 234, 6′-(2,5-Dimethoxy-phenyl)-4-(4-fluoro-phenyl)-3,4,5,6-tetrahydro-2H-[1,2′]bipyrazinyl]
1 to 10 µM	Fc1ccc(N2CCN(c3cncc(-c4csc5ccccc45)n3)CC2)cc1 [compound 235, 6′-Benzo[b]thiophen-3-yl-4-(4-fluoro-phenyl)-3,4,5,6-tetrahydro-2H-[1,2′]bipyrazinyl]
10 to 100 µM	CC(=O)c1ccccc1-c1cncc(N2CCN(c3cccc(Cl)c3)CC2)n1 [compound 236, 1-{2-[4-(3-Chloro-phenyl)-3,4,5,6-tetrahydro-2H-[1,2′]bipyrazinyl-6′-yl]-phenyl}-ethanone]
10 to 100 µM	Cc1ccc(-c2cncc(N3CCN(c4cccc(Cl)c4)CC3)n2)cc1 [compound 237, 4-(3-Chloro-phenyl)-6′-p-tolyl-3,4,5,6-tetrahydro-2H-[1,2′]bipyrazinyl]
10 to 100 µM	Fc1ccc(-c2cncc(N3CCN(c4cccc(Cl)c4)CC3)n2)cc1Cl [compound 238, 6′-(3-Chloro-4-fluoro-phenyl)-4-(3-chloro-phenyl)-3,4,5,6-tetrahydro-2H-[1,2′]bipyrazinyl]
10 to 100 µM	Clc1cccc(N2CCN(c3cncc(-c4csc5ccccc45)n3)CC2)c1 [compound 239, 6′-Benzo[b]thiophen-3-yl-4-(3-chloro-phenyl)-3,4,5,6-tetrahydro-2H-[1,2′]bipyrazinyl]
10 to 100 µM	COc1ccccc1N1CCN(c2cncc(-c3ccccc3C(C)=O)n2)CC1 [compound 240, 1-{2-[4-(2-Methoxy-phenyl)-3,4,5,6-tetrahydro-2H-[1,2′]bipyrazinyl-6′-yl]-phenyl}-ethanone]
10 to 100 µM	COc1ccccc1N1CCN(c2cncc(-c3ccc(C)cc3)n2)CC1 [compound 241, 4-(2-Methoxy-phenyl)-6′-p-tolyl-3,4,5,6-tetrahydro-2H-[1,2′]bipyrazinyl]
10 to 100 µM	COc1ccccc1N1CCN(c2cncc(-c3ccc(F)c(Cl)c3)n2)CC1 [compound 242, 6′-(3-Chloro-4-fluoro-phenyl)-4-(2-methoxy-phenyl)-3,4,5,6-tetrahydro-2H-[1,2′]bipyrazinyl]
10 to 100 µM	COc1ccccc1N1CCN(c2cncc(-c3csc4ccccc34)n2)CC1 [compound 243, 6′-Benzo[b]thiophen-3-yl-4-(2-methoxy-phenyl)-3,4,5,6-tetrahydro-2H-[1,2′]bipyrazinyl]
10 to 100 µM	Cc1cccc(-c2cncc(N3CCN(c4ccccc4)CC3)n2)c1 [compound 244, 4-Phenyl-6′-m-tolyl-3,4,5,6-tetrahydro-2H-[1,2′]bipyrazinyl]
1 to 10 µM	Cc1ccc(-c2cncc(N3CCN(c4ccccc4)CC3)n2)cc1 [compound 245, 4-Phenyl-6′-p-tolyl-3,4,5,6-tetrahydro-2H-[1,2′]bipyrazinyl]
10 to 100 µM	c1ccc(N2CCN(c3cncc(-c4cccc5ccccc45)n3)CC2)cc1 [compound 246, 6′-Naphthalen-1-yl-4-phenyl-3,4,5,6-tetrahydro-2H-[1,2′]bipyrazinyl]

IC50	SMILES
1 to 10 µM	c1ccc(N2CCN(c3cncc(-c4csc5ccccc45)n3)CC2)cc1 [compound 247, 6′-Benzo[b]thiophen-3-yl-4-phenyl-3,4,5,6-tetrahydro-2H-[1,2′]bipyrazinyl]
10 to 100 µM	Cc1ccc(-c2cncc(N3CCN(c4ccccc4F)CC3)n2)cc1 [compound 248, 4-(2-Fluoro-phenyl)-6′-p-tolyl-3,4,5,6-tetrahydro-2H-[1,2′]bipyrazinyl]
10 to 100 µM	Fc1ccccc1N1CCN(c2cncc(-c3cccc4ccccc34)n2)CC1 [compound 249, 4-(2-Fluoro-phenyl)-6′-naphthalen-1-yl-3,4,5,6-tetrahydro-2H-[1,2′]bipyrazinyl]
10 to 100 µM	Cc1cccc(-c2cncc(N3CCN(c4ccccc4F)CC3)n2)c1C [compound 250, 6′-(2,3-Dimethyl-phenyl)-4-(2-fluoro-phenyl)-3,4,5,6-tetrahydro-2H-[1,2′]bipyrazinyl]
10 to 100 µM	Fc1ccccc1N1CCN(c2cncc(-c3csc4ccccc34)n2)CC1 [compound 251, 6′-Benzo[b]thiophen-3-yl-4-(2-fluoro-phenyl)-3,4,5,6-tetrahydro-2H-[1,2′]bipyrazinyl]
10 to 100 µM	FC(F)(F)c1cccc(N2CCN(c3cncc(-c4ccc5ccccc5c4)n3)CC2)c1 [compound 252, 6′-Naphthalen-2-yl-4-(3-trifluoromethyl-phenyl)-3,4,5,6-tetrahydro-2H-[1,2′]bipyrazinyl]
10 to 100 µM	CC(C)(C)c1ccc(-c2cncc(N3CCN(c4cccc(C(F)(F)F)c4)CC3)n2)cc1 [compound 253, 6′-(4-tert-Butyl-phenyl)-4-(3-trifluoromethyl-phenyl)-3,4,5,6-tetrahydro-2H-[1,2′]bipyrazinyl]
10 to 100 µM	OCc1ccc(-c2cncc(N3CCN(c4cccc(C(F)(F)F)c4)CC3)n2)cc1 [compound 254, {4-[4-(3-Trifluoromethyl-phenyl)-3,4,5,6-tetrahydro-2H-[1,2′]bipyrazinyl-6′-yl]-phenyl}-methanol]
10 to 100 µM	FC(F)(F)c1cccc(N2CCN(c3cncc(-c4ccoc4)n3)CC2)c1 [compound 255, 6′-Furan-3-yl-4-(3-trifluoromethyl-phenyl)-3,4,5,6-tetrahydro-2H-[1,2′]bipyrazinyl]
10 to 100 µM	Cc1ccccc1-c1cncc(N2CCN(c3ccncc3)CC2)n1 [compound 256, 4-Pyridin-4-yl-6′-o-tolyl-3,4,5,6-tetrahydro-2H-[1,2′]bipyrazinyl]
1 to 10 µM	CC(C)(C)c1ccc(-c2cncc(N3CCN(c4ccncc4)CC3)n2)cc1 [compound 257, 6′-(4-tert-Butyl-phenyl)-4-pyridin-4-yl-3,4,5,6-tetrahydro-2H-[1,2′]bipyrazinyl]
1 to 10 µM	OCc1ccc(-c2cncc(N3CCN(c4ccncc4)CC3)n2)cc1 [compound 258, [4-(4-Pyridin-4-yl-3,4,5,6-tetrahydro-2H-[1,2′]bipyrazinyl-6′-yl)-phenyl]-methanol]
10 to 100 µM	COc1ccc(Cl)cc1-c1cncc(N2CCN(c3ccncc3)CC2)n1 [compound 259, 6′-(5-Chloro-2-methoxy-phenyl)-4-pyridin-4-yl-3,4,5,6-tetrahydro-2H-[1,2′]bipyrazinyl]
1 to 10 µM	CCOc1ccc(-c2cncc(N3CCN(c4ccncc4)CC3)n2)cc1 [compound 260, 6′-(4-Ethoxy-phenyl)-4-pyridin-4-yl-3,4,5,6-tetrahydro-2H-[1,2′]bipyrazinyl]
1 to 10 µM	COc1ccc(N2CCN(c3cncc(-c4ccsc4)n3)CC2)cc1OC [compound 261, 4-(3,4-Dimethoxy-phenyl)-6′-thiophen-3-yl-3,4,5,6-tetrahydro-2H-[1,2′]bipyrazinyl]
